“Also recorded” adds a separate entry of the source. Where two headings read alike, the source gives them in different places.
How the values were obtained:
prostate CSCs = test: ALDH+ cancer stem cell population by FACS; type: cell-based
Experimental: FIGS. 6A-G. Skp2 inactivation diminishes cancer stem cell properties and heightens cancer cell sensitivity to chemotherapy. (FIG. 6A) Populations of ALDH^+ cells were determined by FACS analysis in PC3 cells treated with vehicle or compound #25. (FIG. 6B) Populations of ALDH^+ cells were determined by FACS analysis in PC3 cells with control or Skp2 knockdown. (FIG. 6C) Populations of ALDH^+ cells were determined by FACS analysis in PC3 cells with control or Skp2 knockdown treated with vehicle or compound #25. (FIG. 6D) Populations of ALDH^+ cells were determined by FACS analysis in PC3 cells with DMSO or LY294002. (FIG. 6E) Populations of ALDH^+ cells were determined by FACS analysis in LNCaP cells treated with DMSO, LY294002 or compound #25. (FIGS. 6F-G) Prostate sphere-formation assay in PC3 (FIG. 6F) and LNCaP (FIG. 6G) cells treated with DMSO, LY294002 or compound #25. Results are presented as mean values±S.D. ** indicates p<0.01.

[1] = tested on: p53-deficient prostate cancer cells; test: Cell senescence assay (SA-b-gal); type: cell-based
Experimental: (§1) For Skp2 inhibitor administration, 5-10×10^3 of cells with were seeded in 12 wells in triplicate, 24 h later, treated with compound #25 (refreshed every two days). Four days later, cells were harvested, stained with trypan blue, and viable cells were counted directly under the microscope using hemocytometer. For doxorubicin treatment, 8×10^3 of PC3 cells with were seeded in 12 wells in triplicate, 24 h later, treated with various dose of compound #25 in the presence or absence of 10 nM doxorubicin or 25 ng/ml cyclophosphamide for four and three days, respectively (refreshed every two days). After treatment, cells were harvested, stained with trypan blue, and viable cells were counted directly under the microscope using hemocytometer. Cellular senescence was determined by assessing SA-b-gal activity using senescence detection kit according to manufacturers' standard procedures (Calbiochem).

[2] = tested on: Skp2 Trp97Ala and Asp98Ala mutants; test: In vitro binding of compound to GST-Skp2 mutants by LC-MS/MS; conditions: preexisting Skp2-Skp1 complex
Experimental: To corroborate this notion, the in vitro binding assay was performed to compare the binding affinity of compound #25 to WT Skp2 and Skp2 mutants (Trp97Ala and Asp98Ala) using LC-MS/MS analysis. Of note, since the nature of recombinant Skp2 protein was unstable in the absence of Skp1 (Li et al., 2005), the GST-Skp2 WT, GST-Skp2 Trp97Ala and GST-Skp2Asp98Ala mutants subjected to LC-MS/MS analysis were co-expressed, purified and preformed complex with Skp1 (FIG. 10A).

[3] = Pharmacokinetic analysis, plasma and tumor distribution; type: in vivo, nude mice
Experimental: FIGS. 14A-C. Skp2 inhibitor restricts cancer cell proliferation and triggers apoptosis in prostate tumor xenografts. The quantification results (FIG. 14A) and representative images (FIG. 14B) of histological analysis of Ki-67, TUNEL, Skp2 and HE staining in PC3-driven tumor xenografts. “Low” indicates tumor xenografts treated with 40 mg/kg, while “high” indicates the xenografts treated with 80 mg/kg of compound #25. Scale bar indicates 100 μm. (FIG. 14C) Pharmacokinetic analysis of compound #25. Plasma and tumor distribution following IP injection of compound #25 to nude mice bearing PC3-driven tumor xenograft are analyzed. Three mice were evaluated at each time point. Results are represented as mean values±S.D.

[4] = tested on: Skp2 Trp97Ala and Asp98Ala mutants; test: In vivo p27 ubiquitination assay, Skp2 Trp97Ala and Asp98Ala mutants; type: cell-based
Experimental: (§2) In vivo and in vitro ubiquitination assays were performed as described with modification (Lin et al., 2009; Yang et al., 2009). For in vitro ubiquitination assay, recombinant GST-Akt proteins were expressed, purified and eluted from the bacterial lysates of BL21 competent cells. Flag-Skp2 SCF complex were expressed in 293T cells, immunoprecipitated by anti-Flag antibody, and eluted from Protein A/G beads using Flag peptides according to manufacturers' standard procedures. Purified GST-Akt and Flag-SCF proteins were incubated for 3 h at 37° C. in the absence and presence of Skp2 inhibitor. After incubation, protein mixtures were diluted in E1A Buffer and the supernatant fluid was precleared with Protein A/G beads for 1 h, and immunoprecipitated overnight with anti-Flag antibody, after which Protein A/G beads were added for an additional 1 h. Beads were washed 4 times with E1A Buffer. Proteins were eluted in SDS-sample buffer and subjected to immunoblotting analysis. For in vivo ubiquitination assay, 293T cells were transfected with the indicated plasmids and cultured in the absence or presence of Skp2 inhibitor for 48 h. 6 h before harvest, cells were cultured in the presence of MG132. After cell harvest, cells were lysed by the denatured buffer (6M guanidine-HCl, 0.1M Na2HPO4/NaH2PO4, 10 mM imidazole). […]

Skp2 SCF complex = target: T1, Skp2 SCF complex (Homo sapiens, UniProt Q13309); test: In vitro Skp2-mediated Akt ubiquitination assay; type: biochemical; conditions: recombinant Akt, FIG. 1H
T1 construct: made in house; host or cells: 293T cells; anti-Flag immunoprecipitation, eluted with Flag peptide
T1 sequence (Q13309 whole entry, one chain of several): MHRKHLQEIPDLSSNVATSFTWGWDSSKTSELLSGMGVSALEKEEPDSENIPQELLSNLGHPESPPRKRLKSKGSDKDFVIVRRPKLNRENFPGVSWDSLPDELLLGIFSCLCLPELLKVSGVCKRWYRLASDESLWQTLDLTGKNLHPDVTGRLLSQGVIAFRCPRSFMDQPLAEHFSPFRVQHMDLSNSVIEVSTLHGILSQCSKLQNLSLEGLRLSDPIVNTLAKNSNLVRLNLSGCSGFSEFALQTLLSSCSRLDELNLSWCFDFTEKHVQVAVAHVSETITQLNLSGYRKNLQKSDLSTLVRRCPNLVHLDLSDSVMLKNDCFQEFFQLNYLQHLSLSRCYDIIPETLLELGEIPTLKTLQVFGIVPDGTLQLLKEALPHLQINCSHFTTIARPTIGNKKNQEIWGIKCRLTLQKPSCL
Experimental: as §2

[5] = target: T2, Skp2-mediated Akt ubiquitination (Homo sapiens, UniProt Q13309); test: In vivo Akt ubiquitination assay; type: cell-based; conditions: FIG. 1G
T2 construct: expressed in transfected cells; host or cells: 293T
T2 sequence (Q13309 whole entry): as the sequence (Q13309 whole entry, one chain of several) above
Experimental: as §2

LNCaP cells = test: Cell survival assay, LNCaP; type: cell-based, human
Experimental: as §1

PC3 xenograft tumors = test: PC3 tumor xenograft in nude mice; type: in vivo
Experimental: Nude mice bearing PC3 or A549 xenograft tumors (around 100 mm^3) were administrated with vehicle or 80 mg/kg compound #25 on a daily basis. Tumor size was measured weekly with a caliper, and tumor volume was determined with the standard formula: L×W2×0.52, where L is the longest diameter and W the shortest diameter.

[6] = tested on: normal prostate epithelial PNT1A cells; test: Cell survival assay, PNT1A; type: cell-based
Experimental: as §1

Skp2 SCF E3 ligase = target: T3, Skp2 SCF E3 ligase (Homo sapiens, UniProt Q13309); test: In vivo p27 ubiquitination assay in 293T cells; type: cell-based; conditions: WT Skp2
T3 construct: expressed in transfected cells; host or cells: 293T
T3 sequence (Q13309 whole entry): as the sequence (Q13309 whole entry, one chain of several) above
Experimental: as §2

CCc1cc2c(=O)c(-c3nc4ccccc4s3)coc2c(CN2CCCCC2)c1O [compound #25, 3-(1,3-benzothiazol-2-yl)-6-ethyl-7-hydroxy-8-(1-piperidinylmethyl)-4H-chromen-4-one]
population of prostate CSCs (prostate CSCs): reduce the population of prostate CSCs in a dose dependent manner | population of prostate CSCs upon Skp2 silencing (prostate CSCs; Skp2 silencing): failed to do so | cellular senescence [1]: triggered cellular senescence | binding to Trp97Ala and Asp98Ala mutants [2]: failed to interact | time of maximum levels in blood ([3]; IP administration): 1 h | share of compound maintained in blood ([3]; for 6 h): up to 70% | concentration at 24 h ([3]; nude, mouse, blood, intraperitoneal, 24 h after administration, read-out: terminal concentration in blood): 126 ± 48 ng/mL | Cmax ([3]; nude, mouse, blood, IP administration): 1430 ± 1180 ng/mL | concentration at 24 h ([3]; nude, mouse, tumor, intraperitoneal, 24 h after initial administration, read-out: concentration remaining in tumor tissues): ~1160 ng/mL | concentration at 1 h ([3]; nude, mouse, tumor, intraperitoneal, within 1 h, read-out: concentration in tumors): 4790 ± 1970 ng/g | E3 ligase activity of Skp2 Trp97Ala and Asp98Ala mutants [4]: failed to inhibit | Skp2-mediated Akt ubiquitination in vitro (Skp2 SCF complex): attenuated Skp2-mediated Akt ubiquitination | Skp2-mediated Akt ubiquitination in cells [5]: inhibited Skp2-mediated Akt ubiquitination | cell viability (LNCaP cells): potent effects on cell viability | prostate tumor growth in vivo (PC3 xenograft tumors; IP injection): potent effect | p27, p21, apoptosis, Akt activation and Glut1 in prostate tumor tissues (PC3 xenograft tumors; histological analysis): induced expression of p27 and p21, apoptosis, and suppressed Akt activation and Glut1 expression | cell viability [6]: only slightly affected | Skp2-mediated p27 ubiquitination (Skp2 SCF E3 ligase): inhibited Skp2-mediated p27 ubiquitination in a dose-dependent manner; also recorded: abrogated E3 ligase activity
